# Test results reported in paper PMC8765310, “Metabolism, Excretion, and Mass Balance of [^14C]-Rezafungin in Animals and Humans” (Antimicrobial Agents and Chemotherapy, 2022).
# *1 amine or outer side, *2 acyl side, *3 side chain or, on linkers, in order; H or OH if unused. Where a SMILES comes first, the peptide text is derived from it. Bridges are numbered along the chain shown (N, C = ends). [ ]: non-standard residue; d: D form. The star is where a group is joined. Orn(4R-OH,5R-OCH2CH2NMe3+) = C[N+](C)(C)CCO[C@@H](N[*:3])[C@H](O)C[C@H](N[*:1])C(=O)[*:2]; hTyr(3S-OH,4S-OH) = N[C@H](C(=O)O)[C@H](O)[C@@H](O)c1ccc(O)cc1; X1 = CC(O)CCCOc1ccc(-c2ccc(-c3ccc(C(=O)*)cc3)cc2)cc1; X2 = CCCC(O)COc1ccc(-c2ccc(-c3ccc(C(=O)*)cc3)cc2)cc1; X3 = CCC(O)CCOc1ccc(-c2ccc(-c3ccc(C(=O)*)cc3)cc2)cc1; Pro(3S-OH,4S-Me) = C[C@H]1CN[C@H](C(=O)O)[C@H]1O; X4 = O=C(c1ccc(-c2ccc(-c3ccc(O)cc3)cc2)cc1)*; Hyp = O=C(O)[C@@H]1C[C@@H](O)CN1
# Legend:
# [1] = Monkey metabolite profiling (LC-MS with radioactivity detection); type: in vivo, cynomolgus monkeys; conditions: cynomolgus monkey, in vivo, iv, 10 mg/kg
# Method: (ii) Monkey study design. The study used 3 male cynomolgus monkeys, each administered a single 10 mg/kg IV dose of [^14C]-rezafungin (with a target radioactivity of 100 μCi/kg of [^14C]-rezafungin) by infusion into a saphenous vein over 20 min. Whole blood and plasma samples were collected at each of the following time points: predose, 0.5, 2, 4, 8, 24, 48, 96 120, 144, 168, 240, 480, 720, and 1440 h postdose. Urine, feces, and cage washings were collected at predose (urine/feces only) and daily 24-h collections for 30 days.
# (§1) (iv) Metabolite profiling. The metabolite identification and urine profiling were achieved using pooled samples by equal percent weight of samples (urine, bile, feces) or by equal volume (50 μl) aliquots of each plasma sample across all time points/intervals. The urine, plasma, bile, and fecal samples were analyzed using liquid chromatography tandem mass spectrometry (LC-MS) coupled with a radioactivity flow-through detector for metabolite profiling and identification. Tandem MS experiments were performed, and the structures of the metabolites were proposed based on their MS/MS spectra. The proposed structures were confirmed by comparison of the retention times and product ion spectra with the authentic reference standards when possible.
# [2] = Rat metabolite profiling (LC-MS with radioactivity detection); type: in vivo, Sprague-Dawley rats; conditions: rat, in vivo, iv, 15 mg/kg
# Method: (i) Rat study design. The study used 12 male Sprague-Dawley rats, each administered a bolus IV injection into the tail vein over approximately 3–4 min of 15 mg/kg of rezafungin (with a target radioactivity of 200 μCi/kg of [^14C]-rezafungin). Three of the rats were bile duct cannulated. Whole blood/plasma, urine, feces/bile, and cage washings were collected at periodic intervals from noncannulated rats until euthanization at 336 h postdose and from bile duct cannulated rats until euthanization at 120 h postdose as that was the duration that the patency of bile duct cannulae could be maintained. Carcasses were collected at the time of euthanization. All samples were analyzed for drug-derived radioactivity by liquid scintillation counting.
# as §1
# [3] = cited from earlier work
# Source text: Biliary excretion has been observed for caspofungin([17]) and anidulafungin([18]). In the case of anidulafungin, although uncommon, passive diffusion (up to 10% of dosed fraction) was reported for anidulafungin, with which rezafungin ...
Compound,Share of total plasma radioactivity exposure [1] [%],Share of total recovered radioactivity in urine [1] [%],Share of total plasma radioactivity exposure [2],Share of total recovered radioactivity in urine [2] [%],Share of total recovered radioactivity in feces [1] [%],"Passive diffusion, dosed fraction [3]"
"CCCC(O)COc1ccc(-c2ccc(-c3ccc(C(=O)N[C@H]4C[C@@H](O)[C@@H](OCC[N+](C)(C)C)NC(=O)[C@@H]5[C@@H](O)[C@@H](C)CN5C(=O)[C@H]([C@@H](C)O)NC(=O)[C@H]([C@H](O)[C@@H](O)c5ccc(O)cc5)NC(=O)[C@@H]5C[C@@H](O)CN5C(=O)[C@H]([C@@H](C)O)NC4=O)cc3)cc2)cc1 (stereo partly drawn) [2’-hydroxylpentyl rezafungin] (X2-[Orn(4R-OH,5R-OCH2CH2NMe3+)]T[Hyp][hTyr(3S-OH,4S-OH)]T[Pro(3S-OH,4S-Me)]; lactam 1-C)",3.0,25,~11%,7.8,–,–
"C[C@@H](O)[C@@H]1NC(=O)[C@H]([C@H](O)[C@@H](O)c2ccc(O)cc2)NC(=O)[C@@H]2C[C@@H](O)CN2C(=O)[C@H]([C@@H](C)O)NC(=O)[C@@H](NC(=O)c2ccc(-c3ccc(-c4ccc(O)cc4)cc3)cc2)C[C@@H](O)[C@@H](OCC[N+](C)(C)C)NC(=O)[C@@H]2[C@@H](O)[C@@H](C)CN2C1=O [despentyl-rezafungin] (X4-[Orn(4R-OH,5R-OCH2CH2NMe3+)]T[Hyp][hTyr(3S-OH,4S-OH)]T[Pro(3S-OH,4S-Me)]; lactam 1-C)",–,22,–,28,25,–
anidulafungin,–,–,–,–,–,up to 10 % of dosed fraction

# Now from value to compound, other results behind:
Share of total plasma radioactivity exposure [1] [%],Share of total recovered radioactivity in urine [1] [%],Share of total plasma radioactivity exposure [2],Share of total recovered radioactivity in urine [2] [%],Share of total recovered radioactivity in feces [1] [%],Compound,"Passive diffusion, dosed fraction [3]"
6.3,12,–,1.9,–,"CCC(O)CCOc1ccc(-c2ccc(-c3ccc(C(=O)N[C@H]4C[C@@H](O)[C@@H](OCC[N+](C)(C)C)NC(=O)[C@@H]5[C@@H](O)[C@@H](C)CN5C(=O)[C@H]([C@@H](C)O)NC(=O)[C@H]([C@H](O)[C@@H](O)c5ccc(O)cc5)NC(=O)[C@@H]5C[C@@H](O)CN5C(=O)[C@H]([C@@H](C)O)NC4=O)cc3)cc2)cc1 (stereo partly drawn) [3′-hydroxylpentyl rezafungin] (X3-[Orn(4R-OH,5R-OCH2CH2NMe3+)]T[Hyp][hTyr(3S-OH,4S-OH)]T[Pro(3S-OH,4S-Me)]; lactam 1-C)",–
8.3,42,about 33%,62,–,"CC(O)CCCOc1ccc(-c2ccc(-c3ccc(C(=O)N[C@H]4C[C@@H](O)[C@@H](OCC[N+](C)(C)C)NC(=O)[C@@H]5[C@@H](O)[C@@H](C)CN5C(=O)[C@H]([C@@H](C)O)NC(=O)[C@H]([C@H](O)[C@@H](O)c5ccc(O)cc5)NC(=O)[C@@H]5C[C@@H](O)CN5C(=O)[C@H]([C@@H](C)O)NC4=O)cc3)cc2)cc1 (stereo partly drawn) [4’-hydroxylpentyl rezafungin] (X1-[Orn(4R-OH,5R-OCH2CH2NMe3+)]T[Hyp][hTyr(3S-OH,4S-OH)]T[Pro(3S-OH,4S-Me)]; lactam 1-C)",–
